Patent US9079895B2, “Morpholino compounds, uses and methods” (University of Dundee, priority 2012, dated 2015)

Columns and labels:
Details in all cases: average of at least two experiments
5HT5 receptor = 5HT5 receptor (Homo sapiens (Human), UniProt P47898); test: Secondary radioligand binding assay, 5HT5; design: key: “—” indicates that a binding interaction was not detected;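 note: competitive radioligand displacement on membranes from transfected cell lines, incubated at room temperature in the dark, filter-retained radioactivity counted by liquid scintillation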
Procedure: (§1) Assay Buffer: Standard Binding Buffer (50 mM Tris-HCl, 10 mM MgCl2, 1 mM EDTA, pH 7.4)
(§2) Membrane Fraction Source: Transiently or stably transfected cell lines (e.g., HEK293, COS, CHO, NIH3T3)

[1] = target: Alpha1B adrenergic receptor (Homo sapiens (Human), UniProt P35368); test: Secondary radioligand binding assay, Alpha1B; design: key to Ki Alpha1B: “—” indicates that a binding interaction was not detected
From the text: 1. Secondary Radioligand Binding Assays The detailed experimental protocols for the radioligand and functional receptor assays are available on the NIMH PDSP website at http://pdsp.med.unc.edu/UNC-CH %20Protocol %20Book.pdf. Raw data (dpm) representing total radioligand binding (i.e. specific+non-specific binding) are plotted as a function of the logarithm of the molar concentration of the competitor (i.e. test or reference compound). […] C. Adrenergic Receptors: α1A, α1B, α2A, α2B, α2C, β1, β2, β3 Assay Buffers: For α1 receptors, α1 Binding Buffer (20 mM Tris-HCl, 145 mM NaCl, pH 7.4); for α2 receptors, α2 Binding Buffer (50 mM Tris-HCl, 5 mM MgCl2, pH 7.7); for β receptors, β Binding Buffer (50 mM Tris-HCl, 3 mM MnCl2, pH 7.7) Membrane Fraction Source: Transiently or stably transfected cell lines (e.g. HEK293, COS, CHO, NIH3T3) Protocol adapted from Arango et al. […] (1990), Gen. Psychiatry, 47: 1038-1047. The method is carried out in the manner described for the serotonin receptor assay above, except where described below. Eleven dilutions (5× assay concentration) of the test and reference (see Table 20) compounds are prepared in the appropriate buffer by serial dilution, as previously described. Radioligand is diluted to five times the assay concentration (see Table 21) in the appropriate buffer. […] Four rapid 500-μl washes are performed with chilled distilled water (for α1 and β receptors) or 0.1% polyethyleneimine (for α2 receptors) to reduce non-specific binding. Filters are placed in 6 ml scintillation tubes and allowed to dry overnight and the samples are treated to obtain data as described above. [table]

5HT6 receptor = 5HT6 receptor (Homo sapiens (Human), UniProt P50406); test: Secondary radioligand binding assay, 5HT6; design: key: “—” indicates that a binding interaction was not detected;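 note: competition displacement of radioligand from membranes of transfected cell lines expressing the receptor, 1.5 h at room temperature, bound radioactivity counted by scintillation after filtration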
Procedure: as §1, §2

dopamine D5 receptor = dopamine D5 receptor (Homo sapiens (Human), UniProt P21918); test: Secondary radioligand binding assay, D5; design: key to Ki D5: “—” indicates that a binding interaction was not detected
Procedure: 1. Secondary Radioligand Binding Assays
The detailed experimental protocols for the radioligand and functional receptor assays are available on the NIMH PDSP website at http://pdsp.med.unc.edu/UNC-CH %20Protocol %20Book.pdf.
Radioligand is diluted to five times the assay concentration (see Table 18) in Standard Binding Buffer. Typically, the assay concentration of radioligand is a value between one half the KD and the KD of a particular radioligand at its target. 50 μl aliquots of radioligand are dispensed into the wells of a 96-well plate containing 100 μl of Standard Binding Buffer. Then, duplicate 50 μl aliquots of the test and reference compound dilutions are added.
The 250 μl reactions are incubated at room temperature and shielded from light (to prevent photolysis of light-sensitive ligands) for 1.5 hours, then harvested by rapid filtration onto Whatman GF/B glass fiber filters pre-soaked with 0.3% polyethyleneimine using a 96-well Brandel harverster. Four rapid 500 μl washes are performed with chilled Standard Binding Buffer to reduce non-specific binding. Filters are placed in 6 ml scintillation tubes and allowed to dry overnight. The next day, 4 ml of EcoScint scintillation cocktail (National Diagnostics) are added to each tube. The tubes are capped, labeled, and counted by liquid scintillation counting. […] The filter mats are dried, then scintillant is melted onto the filters and the radioactivity retained on the filters is counted in a Microbeta scintillation counter.
Raw data (dpm) representing total radioligand binding (i.e. specific+non-specific binding) are plotted as a function of the logarithm of the molar concentration of the competitor (i.e. test or reference compound).
B. Dopamine Receptors: D1, D2, D3, D4, D5 Assay Buffers: Dopamine Binding Buffer (50 mM NaCl, 50 mM HEPES-HCl, 5 mM MgCl2, 0.5 mM EDTA, pH 7.4) Membrane Fraction Source: Transiently or stably transfected cell lines (e.g. HEK293, COS, CHO, NIH3T3)
The method is carried out in the manner described for the serotonin receptor assay above. Eleven dilutions (5× assay concentration) of the test and reference (see Table 19) compounds are prepared in Dopamine Binding Buffer by serial dilution, as previously described. Radioligand is diluted to five times the assay concentration (see Table 20) in Dopamine Binding Buffer.

5HT7 receptor = 5HT7 receptor (Homo sapiens (Human), UniProt P34969); test: Secondary radioligand binding assay, 5HT7; design: key to Ki 5HT7: “—” indicates that a binding interaction was not detected;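 note: competition of test compound with radioligand for binding to membranes from transfected cell lines, 1.5 h incubation at room temperature, filter-bound radioactivity read by liquid scintillation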
Chain of 5HT7 receptor (P34969 whole entry): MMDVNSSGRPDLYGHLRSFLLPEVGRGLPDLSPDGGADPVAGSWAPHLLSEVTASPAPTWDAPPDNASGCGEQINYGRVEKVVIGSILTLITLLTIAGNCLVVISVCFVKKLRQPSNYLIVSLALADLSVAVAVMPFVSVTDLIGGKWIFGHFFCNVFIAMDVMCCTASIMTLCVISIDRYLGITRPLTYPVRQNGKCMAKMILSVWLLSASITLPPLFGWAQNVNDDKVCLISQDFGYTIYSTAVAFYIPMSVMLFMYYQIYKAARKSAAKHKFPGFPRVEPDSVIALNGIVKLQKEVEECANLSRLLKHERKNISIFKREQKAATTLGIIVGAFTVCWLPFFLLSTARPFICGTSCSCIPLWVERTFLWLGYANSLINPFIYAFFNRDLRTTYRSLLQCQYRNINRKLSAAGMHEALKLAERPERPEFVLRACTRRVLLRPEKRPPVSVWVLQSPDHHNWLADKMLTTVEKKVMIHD
Procedure: as §1, §2

Chain of 5HT5 receptor (P47898 whole entry): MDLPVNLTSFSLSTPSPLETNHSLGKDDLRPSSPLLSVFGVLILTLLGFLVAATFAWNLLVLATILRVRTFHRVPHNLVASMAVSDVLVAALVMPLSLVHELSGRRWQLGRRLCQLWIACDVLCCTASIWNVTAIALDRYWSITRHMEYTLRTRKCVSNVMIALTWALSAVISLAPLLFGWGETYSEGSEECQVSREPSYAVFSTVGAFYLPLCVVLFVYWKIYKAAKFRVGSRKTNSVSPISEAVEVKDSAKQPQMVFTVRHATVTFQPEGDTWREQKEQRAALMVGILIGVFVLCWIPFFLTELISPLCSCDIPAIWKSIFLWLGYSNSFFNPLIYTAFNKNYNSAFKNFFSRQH
Chain of dopamine D5 receptor (P21918 whole entry): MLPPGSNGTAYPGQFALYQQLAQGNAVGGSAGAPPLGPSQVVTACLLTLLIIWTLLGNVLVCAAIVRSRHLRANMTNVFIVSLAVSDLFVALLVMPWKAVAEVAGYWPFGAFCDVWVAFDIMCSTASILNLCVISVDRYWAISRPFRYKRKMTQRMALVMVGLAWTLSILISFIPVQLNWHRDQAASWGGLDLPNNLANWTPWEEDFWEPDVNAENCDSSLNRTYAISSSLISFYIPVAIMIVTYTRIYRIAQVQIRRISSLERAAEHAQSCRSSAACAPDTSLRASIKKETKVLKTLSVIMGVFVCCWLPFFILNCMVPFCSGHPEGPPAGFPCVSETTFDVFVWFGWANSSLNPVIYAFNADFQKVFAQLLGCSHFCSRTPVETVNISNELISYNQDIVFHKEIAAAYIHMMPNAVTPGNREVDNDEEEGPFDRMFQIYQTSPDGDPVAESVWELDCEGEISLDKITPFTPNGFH
Chain of 5HT6 receptor (P50406 whole entry): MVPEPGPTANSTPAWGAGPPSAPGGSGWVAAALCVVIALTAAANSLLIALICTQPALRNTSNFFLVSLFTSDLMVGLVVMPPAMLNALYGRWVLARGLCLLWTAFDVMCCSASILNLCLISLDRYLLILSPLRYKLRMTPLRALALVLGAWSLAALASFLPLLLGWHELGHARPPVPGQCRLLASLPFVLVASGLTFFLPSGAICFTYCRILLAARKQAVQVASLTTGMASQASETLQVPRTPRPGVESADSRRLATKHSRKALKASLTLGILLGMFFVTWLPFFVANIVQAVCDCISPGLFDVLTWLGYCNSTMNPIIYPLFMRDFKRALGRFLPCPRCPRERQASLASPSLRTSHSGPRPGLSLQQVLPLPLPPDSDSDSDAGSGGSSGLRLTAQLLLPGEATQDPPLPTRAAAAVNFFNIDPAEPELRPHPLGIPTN
Chain of Alpha1B adrenergic receptor (P35368 whole entry): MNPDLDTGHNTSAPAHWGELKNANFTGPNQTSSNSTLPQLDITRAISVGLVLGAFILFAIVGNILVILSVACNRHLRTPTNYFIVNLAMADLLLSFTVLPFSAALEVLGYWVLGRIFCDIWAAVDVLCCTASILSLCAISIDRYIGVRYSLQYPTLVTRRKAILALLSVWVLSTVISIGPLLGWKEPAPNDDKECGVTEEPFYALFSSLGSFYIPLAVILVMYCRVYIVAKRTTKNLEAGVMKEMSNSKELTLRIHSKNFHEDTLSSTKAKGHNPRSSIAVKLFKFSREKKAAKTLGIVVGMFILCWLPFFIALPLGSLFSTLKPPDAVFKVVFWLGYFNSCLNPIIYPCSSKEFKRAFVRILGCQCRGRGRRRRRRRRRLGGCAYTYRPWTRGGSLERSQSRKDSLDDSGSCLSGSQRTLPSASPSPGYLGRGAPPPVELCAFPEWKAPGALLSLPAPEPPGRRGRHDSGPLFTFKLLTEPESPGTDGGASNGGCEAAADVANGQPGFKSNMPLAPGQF

Cc1ccccc1OC[C@H]1CN(CC(=O)N2c3ccccc3CC2C)CCO1 (stereo partly shown) [Compound 66]
—: Ki 5HT5 (5HT5 receptor) | Ki Alpha1B [1] | Ki 5HT6 (5HT6 receptor) | Ki D5 (dopamine D5 receptor) | Ki 5HT7 (5HT7 receptor)

C[C@@H]1Cc2ccccc2N1C(=O)CN1CCO[C@@H](COc2ccncc2)C1 [Compound 67]
—: Ki 5HT5 (5HT5 receptor) | Ki Alpha1B [1] | Ki 5HT6 (5HT6 receptor) | Ki D5 (dopamine D5 receptor) | Ki 5HT7 (5HT7 receptor)

CC1Cc2ccccc2N1C(=O)CN1CCO[C@@H](COc2ccncc2)C1 (stereo partly shown) [Compound 68]
—: Ki 5HT5 (5HT5 receptor) | Ki Alpha1B [1] | Ki 5HT6 (5HT6 receptor) | Ki D5 (dopamine D5 receptor) | Ki 5HT7 (5HT7 receptor)

CC1Cc2ccccc2N1C(=O)CN1CCO[C@@H](COc2ccccn2)C1 (stereo partly shown) [Compound 69]
—: Ki 5HT5 (5HT5 receptor) | Ki Alpha1B [1] | Ki 5HT6 (5HT6 receptor) | Ki D5 (dopamine D5 receptor) | Ki 5HT7 (5HT7 receptor)

Cc1ccnc(OC[C@H]2CN(CC(=O)N3c4ccccc4CC3C)CCO2)c1 (stereo partly shown) [Compound 70]
—: Ki 5HT5 (5HT5 receptor) | Ki Alpha1B [1] | Ki 5HT6 (5HT6 receptor) | Ki D5 (dopamine D5 receptor) | Ki 5HT7 (5HT7 receptor)
